# Reference: patent US20250129103A1, “METHODS FOR TREATMENT OF CANCER” (Frontier Medicines Corporation, priority 2022, published 2025)
# Key:
# [1] = Determination of logD (1-octanol / phosphate buffer pH 7.4); type: physicochemical; details: 1-octanol/phosphate buffer, pH 7.4, pH 7.4, 1-octanol/phosphate buffer; read-out: Log D, pH 7.4
# Summary of the method: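 Each phase analysed by LCMS after 1 h shaking at 800 rpm and centrifugation, room temperature. Phases were mutually saturated 1-octanol and 100 mM phosphate buffer at pH 7.4. LogD derived from the phase concentrations.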
# [2] = molecular target: KRAS G12C (GMPPNP-loaded) and PI3Ka (Ras-binding domain) interaction (Homo sapiens (Human), UniProt P01116, C118S/C51S/C80L/G12C); assay: Inhibition of KRAS G12C and PI3Ka binding (AlphaScreen); details: KRAS G12C loaded with GMPPNP, PI3Ka RBD, 2 hours preincubation; read-out: PI3K RBD K-Ras IC50
# Chain of KRAS G12C (GMPPNP-loaded) and PI3Ka (Ras-binding domain) interaction (P01116 other isoform, or with tags, fused parts or gaps G12C/C51S/C80L/C118S): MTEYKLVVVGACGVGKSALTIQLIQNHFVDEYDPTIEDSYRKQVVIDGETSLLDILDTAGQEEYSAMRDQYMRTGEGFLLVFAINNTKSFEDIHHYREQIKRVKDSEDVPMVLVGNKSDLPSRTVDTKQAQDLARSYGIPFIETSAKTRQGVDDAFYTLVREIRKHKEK
# Summary of the method: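 Biotin-AviTag Cys-light KRAS G12C (aa 1-169, C51S/C80L/C118S), GMPPNP-loaded, 1.5 nM, preincubated 2 h with compound, then His-tagged PI3Ka RBD (aa 157-300, 100 nM) plus AlphaScreen beads added for 60-90 min, RT. Buffer Hepes pH 7.4, 10 μM GMPPNP, 2% DMSO; 10-point 1:3 from 50 μM; 4-parameter IC50.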
# [3] = Determination of kinetic solubility (pH 7.4); type: physicochemical; details: phosphate buffer, pH 7.4, aqueous buffer, kinetic from dmso stock, 50 mM phosphate buffer pH 7.4, read-out: Ksol, pH 7.4
# Summary of the method: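 Solubility taken from filtrate peak areas on a calibration curve (HPLC-UV, LC-MS/MS). Before filtration and centrifugation, compound was shaken for 2 h at room temperature in pH 7.4 50 mM phosphate buffer.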
# [4] = molecular target: KRAS G12C (GMPPNP-loaded) and cRAF (Ras-binding domain) interaction (Homo sapiens (Human), UniProt P01116, C118S/C51S/C80L/G12C); assay: Inhibition of KRAS G12C and cRAF binding (AlphaScreen); details: KRAS G12C loaded with GMPPNP, cRaf RBD, 2 hours preincubation; read-out: Raf-1 RBD K-Ras IC50
# Chain of KRAS G12C (GMPPNP-loaded) and cRAF (Ras-binding domain) interaction (P01116 other isoform, or with tags, fused parts or gaps G12C/C51S/C80L/C118S): as above
# Summary of the method: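 AlphaScreen readout (680 nm excitation, 570 nm emission) of RBD binding after a 60-90 min bead step at room temperature. This step follows 2 h compound exposure of GMPPNP-preloaded KRAS G12C in Hepes pH 7.4 buffer with MgCl2 and 10 μM GMPPNP.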
Compound,logD [1],IC50 [2] [nM],solubility kinetic at 2 h [3] [µg/mL],IC50 [4] [nM]
CO[C@H]1CCN(C/C=C/C(=O)N2CCN(c3nc(OC[C@@]45CCCN4C[C@H](F)C5)nc4c(F)c(-c5cccc6cccc(F)c56)ncc34)C[C@@H]2CC#N)C1 [Compound 222],2.76,< 10,91.6,< 10
Cc1cc(N)nc([C@@H]2Cc3nc(OC[C@@]45CCCN4C[C@H](F)C5)nc(N4CCN(C(=O)/C=C/CN(C)C)[C@@H](CC#N)C4)c3C[C@H]2C)c1C(F)(F)F [Compound 322],2.79,< 10,133,< 10
Cc1cc(N)nc(C2Cc3nc(OC[C@@]45CCCN4C[C@H](F)C5)nc(N4CCN(C(=O)/C=C/CN(C)C)[C@@H](CC#N)C4)c3CC2C)c1C(F)(F)F (stereo partly drawn) [Compound 315],2.47,< 10,139,< 10
Cc1nccc(/C=C/C(=O)N2CCN(c3nc(OC[C@@]45CCCN4C[C@H](F)C5)nc4c3CCN(c3cccc5cccc(Cl)c35)C4)C[C@@H]2CC#N)n1 [Compound 123],4.46,< 10,0.01,< 10
"CCc1nccc(/C=C/C(=O)N2CCN(c3nc(OC[C@@]45CCCN4C[C@H](F)C5)nc4c(F)c(-c5cccc6ccc(F)c(Cl)c56)ncc34)C[C@@H]2CC#N)n1 [Example 88, 2-((S)-4-(7-(8-chloro-7-fluoronaphthalen-1-yl)-8-fluoro-2-(((2R,7aS)-2-fluorotetrahydro-1H-pyrrolizin-7a(5H)-yl)methoxy)pyrido[4,3-d]pyrimidin-4-yl)-1-((E)-3-(2-ethylpyrimidin-4-yl)acryloyl)piperazin-2-yl)acetonitrile]",4.55,< 10,45.9,< 10
N#CC[C@H]1CN(c2nc(OC[C@@]34CCCN3C[C@H](F)C4)nc3c(F)c(-c4cccc5ccc(F)c(F)c45)ncc23)CCN1C(=O)/C=C/CN1CC2CC(C1)O2 [Compound 229],1.63,< 10,69.9,< 10
Cc1nccc(/C=C/C(=O)N2CCN(c3nc(OC[C@@]45CCCN4C[C@H](F)C5)nc4c(F)c(-c5cccc6ccccc56)ncc34)C[C@@H]2CC#N)n1 [Compound 215],2.16,< 10,16.5,< 10
"C#Cc1c(F)ccc2cccc(-c3ncc4c(N5CCN(C(=O)/C=C/c6ccnc(C)n6)[C@@H](CC#N)C5)nc(OC[C@@]56CCCN5C[C@H](F)C6)nc4c3F)c12 [Compound 103, 2-((S)-4-(7-(8-ethynyl-7-fluoronaphthalen-1-yl)-8-fluoro-2-(((2R,7aS)-2-fluorotetrahydro-1H-pyrrolizin-7a(5H)-yl)methoxy)pyrido[4,3-d]pyrimidin-4-yl)-1-((E)-3-(2-methylpyrimidin-4-yl)acryloyl)piperazin-2-yl)acetonitrile]",3.29,< 10,10,< 10
"N#CC[C@H]1CN(c2nc(OC[C@@]34CCCN3C[C@H](F)C4)nc3c(F)c(-c4cccc5ccc(F)c(Cl)c45)ncc23)CCN1C(=O)/C=C/CN1CC2CC(C1)O2 [Example 77, 2-((2S)-1-((E)-4-(6-oxa-3-azabicyclo[3.1.1]heptan-3-yl)but-2-enoyl)-4-(7-(8-chloro-7-fluoronaphthalen-1-yl)-8-fluoro-2-(((2R,7aS)-2-fluorotetrahydro-1H-pyrrolizin-7a(5H)-yl)methoxy)pyrido[4,3-d]pyrimidin-4-yl)piperazin-2-yl)acetonitrile]",2.92,< 10,116,< 10
